Here are results for 15 compounds from US20260327655A1, “SMALL-MOLECULE REGULATED ALTERNATIVE SPLICING” (priority 2023, published 2026).

The structures appear in SMILES notation. Where two headings read alike, the source gives them in different places.

Assay type in all cases: cell-based
Holding throughout (details): Homo sapiens

Experiment [1] relates to RS1-10 minigene (Firefly Luciferase), HEK-293T cells. Briefly: Luciferase induction assay, RS1-10 with splice modulator compounds in HEK-293T cells. As for the experimental part:
(§1) HEK-293T cells were cultured in DMEM+10% FBS, collected after trypsinization, and then dispensed into 96-well plates (cell culture-treated). Each well of the plate was seeded with 1.0×10^5 cells in 100 μL culture medium. After a 1-hour incubation in a tissue culture incubator (5% CO2, 37 degrees C.), plasmid DNA was complexed with a transfection reagent, such as Lipofectamine 3000, and added to respective wells on the plate. Each well received an equivalent of 100 ng of plasmid DNA complexed with 0.15 μL Lipofectamine. Triplicate wells were used for each condition tested in the experiment. The plasmid utilized in the experiment encoded a CMV promoter upstream of the RS I-10 variant that controlled the expression of a Firefly Luciferase gene followed by a SV40 polyadenylation signal. After a 10-minute incubation at room temperature, either DMSO vehicle or specified compound at specified dose was added to the wells of the plate. Plates were then incubated for 18 hours in a tissue culture incubator. Endpoint analysis was performed by adding 100 uL Steady-Luc Firefly Luciferase substrate to each well of the assay plate. After mixing, the liquid contents of each was transferred to a 96-well plate, mixed again for 2 min on an orbital shaker, and incubated at room temperature for 5 min. Finally, the luminescent signal from each well was measured with a with PerkinElmer Envision plate reader. The results of this assay show RS1-10 responded to the majority of the splice modulator compounds used in a dose responsive manner (FIG. 9C). Bars represent mean+/−standard deviation of 3 wells normalized to vehicle controls.

In experiment [2] the test system is RS2-3 minigene (Firefly Luciferase), HEK-293T cells. The experiment in a line: Luciferase induction assay, RS2-3 with splice modulator compounds in HEK-293T cells. As for the experimental part: as §1, with “RS2-3” for “RS I-10”, “RS2-3” for “RS1-10”, “used” for “used in a dose responsive manner”, “13C)” for “9C).”
Experiment [3] deals with RS3-13 minigene (Firefly Luciferase), HEK-293T cells. Briefly: Luciferase induction assay, RS3-13 with splice modulator compounds in HEK-293T cells. Here is the method: as §1, with “RS3-13” for “the RS I-10 variant”, “RS3-13” for “RS1-10”, “used” for “used in a dose responsive manner”, “14D)” for “9C).”
Where [4] appears, read: RS1-10, 100 nM, 18 hours, n of 3, read-out: Mean fold-induction of luciferase (relative to vehicle control).
Setting [5] is: RS1-10, 1,000 nM, 18 hours, n of 3, read-out: Mean fold-induction of luciferase (relative to vehicle control).
[6] abbreviates: RS2-3, 100 nM, 18 hours, n of 3, read-out: Mean fold-induction of luciferase (relative to vehicle control).
Where [7] appears, read: RS2-3, 1,000 nM, 18 hours, n of 3, read-out: Mean fold-induction of luciferase (relative to vehicle control).
The mark [8] stands for this setting: RS3-13, 100 nM, 18 hours, n of 3, read-out: Mean fold-induction of luciferase (relative to vehicle control).
The mark [9] stands for this setting: RS3-13, 1,000 nM, 18 hours, n of 3, read-out: Mean fold-induction of luciferase (relative to vehicle control).
The mark [10] stands for this setting: 18 h, read-out: Mean fold-induction of luciferase (relative to vehicle control).

In the case of `Cc1cn2cc(-c3nc(=O)n4cc(N5CCNCC5)ccc4n3)cc(C)c2n1` [Compound 126B], the fold induction at 0.1 µM stood at 2.06 in experiment [1] (setting [4]), 5.18 in experiment [2] (setting [6]) and 3.46 in experiment [3] (setting [8]). For the same compound, the fold induction at 1 µM came to 41.5 in experiment [1] (setting [5]), 17.8 in experiment [2] (setting [7]) and 25.2 in experiment [3] (setting [9]).
For `Cc1cn2cc(-c3nc(=O)n4cc(N5CCN[C@@H](C)C5)cc(C)c4n3)cc(F)c2n1` [Compound 117B], the fold induction at 0.1 µM in experiment [1] (setting [4]) came out at 52.1; in experiment [2] (setting [6]), 15.2; in experiment [3] (setting [8]), 22.8. In addition, the fold induction at 1 µM in experiment [1] (setting [5]) was 73.5; in experiment [2] (setting [7]), 39.9; in experiment [3] (setting [9]), 55.6.
Regarding `Cc1cn2cc(-c3nc(=O)n4cc(N5CCNCC5)cc(C)c4n3)cc(F)c2n1` [Compound 108B], the fold induction at 0.1 µM is 1.16 in experiment [1] (setting [4]), 1.65 in experiment [2] (setting [6]) and 1.41 in experiment [3] (setting [8]). For the same compound, the fold induction at 1 µM in experiment [1] (setting [5]) amounted to 1.43; in experiment [2] (setting [7]), 1.76; in experiment [3] (setting [9]), 1.66.
With `Cc1cn2cc(-c3nc(=O)n4cc(N5CCN[C@@H](C)C5)cc(F)c4n3)cc(C)c2n1` [Compound 121B], the fold induction at 0.1 µM in experiment [1] (setting [4]) worked out at 24.6; in experiment [2] (setting [6]), 9.41; in experiment [3] (setting [8]), 9.95. The fold induction at 1 µM amounted to 73.5 in experiment [1] (setting [5]), 28.8 in experiment [2] (setting [7]) and 46 in experiment [3] (setting [9]).
For `Cc1cn2cc(-c3ccc(-c4ccc(C5CN(C(C)C)C5)nn4)c(O)c3)cc(F)c2n1` [Compound 15A], the fold induction at 0.1 µM in experiment [1] (setting [4]) came out at 79; in experiment [2] (setting [6]), 17; in experiment [3] (setting [8]), 20.6. Further, the fold induction at 1 µM was 82 in experiment [1] (setting [5]), 39.4 in experiment [2] (setting [7]) and 54.5 in experiment [3] (setting [9]).
Regarding `Cc1cn2cc(-c3ccc(-c4ccc(C5CN(Cc6cocn6)C5)nn4)c(O)c3)cc(F)c2n1` [Compound 101A], the fold induction at 0.1 µM in experiment [1] (setting [4]) came out at 57.5; in experiment [2] (setting [6]) it was 8.48; in experiment [3] (setting [8]), 6. The fold induction at 1 µM came out at 86.8 in experiment [1] (setting [5]), 31.5 in experiment [2] (setting [7]) and 34.2 in experiment [3] (setting [9]).
Consider `Cc1cn2nc(-c3ccc(-c4ccc(C5CNC5)nn4)c(O)c3)cc(C)c2n1` [Compound 3A], for which the fold induction at 0.1 µM was determined as 31.7 in experiment [1] (setting [4]), 2.86 in experiment [2] (setting [6]) and 1.81 in experiment [3] (setting [8]). Besides, the fold induction at 1 µM in experiment [1] (setting [5]) amounted to 94.7; in experiment [2] (setting [7]), 17.6; in experiment [3] (setting [9]), 10.2.
On to `Cc1cn2cc(-c3cc(O)c(-c4ccc(C5CNC5)nn4)cc3F)cc(F)c2n1` [Compound 8A], for which the fold induction at 0.1 µM in experiment [1] (setting [4]) came out at 41.5; in experiment [2] (setting [6]), 4.1; in experiment [3] (setting [8]) it was 2.11. The fold induction at 1 µM in experiment [1] (setting [5]) amounted to 79.2; in experiment [2] (setting [7]), 16; in experiment [3] (setting [9]) it was 9.79.
As to `Cc1cc2cc(-c3nc(=O)n4cc(N5CCNC(C)(C)C5)cc(F)c4n3)cc(C)n2n1` [Compound 135B], the fold induction at 0.1 µM in experiment [1] (setting [4]) turned out to be 16.1; in experiment [2] (setting [6]), 7.61; in experiment [3] (setting [8]), 5.99. For the same compound, the fold induction at 1 µM in experiment [1] (setting [5]) turned out to be 48.8; in experiment [2] (setting [7]), 14.7; in experiment [3] (setting [9]), 16.1.
For the compound `Cc1cn2cc(-c3nc(=O)n4cc(C5=CCNCC5)ccc4n3)cc(F)c2n1` [Compound 111B], the figures for the fold induction at 0.1 µM in experiment [1] (setting [10]), in experiment [2] (setting [10]) and in experiment [3] (setting [10]) were 3.06, 1.6 and 1.32, respectively. In addition, the fold induction at 1 µM in experiment [1] (setting [10]) is 48.4; in experiment [2] (setting [10]), 2.97; in experiment [3] (setting [10]), 1.63.
Regarding `Cc1cc(-c2ccc(-c3ccc(C4CNC4)nn3)c(O)c2)cc2cn(C)nc12` [Compound 6A], the results for the fold induction at 0.1 µM in experiment [1] (setting [4]), in experiment [2] (setting [6]) and in experiment [3] (setting [8]) were 29.4, 2.54 and 1.69, respectively. Also, the fold induction at 1 µM in experiment [1] (setting [5]) came to 69.6; in experiment [2] (setting [7]), 13.9; in experiment [3] (setting [9]) it was 7.94.
Consider `Cc1cn2cc(-c3ccc(-c4ccc(C5CN(C6CCOC(C)(C)C6)C5)nn4)c(O)c3)cc(F)c2n1` (stereo not drawn) [Compound 86A], for which the fold induction at 0.1 µM in experiment [1] (setting [4]) came to 56.1; in experiment [2] (setting [6]) it was 7.86; in experiment [3] (setting [8]), 7.54. Further, the figures for the fold induction at 1 µM in experiment [1] (setting [5]), in experiment [2] (setting [7]) and in experiment [3] (setting [9]) were 85.1, 27.7 and 31.3, respectively.
Consider `CCN1CC(c2ccc(-c3ccc(-c4cn5cc(C)nc5c(C)n4)cc3O)nn2)C1` [Compound 32A], for which the fold induction at 0.1 µM in experiment [1] (setting [4]) is 53.5; in experiment [2] (setting [6]), 5.9; in experiment [3] (setting [8]) it was 3.24. The results for the fold induction at 1 µM in experiment [1] (setting [5]), in experiment [2] (setting [7]) and in experiment [3] (setting [9]) were 83.1, 23.3 and 23, respectively.
For `Cc1cc2cc(-c3ccc(-c4ccc(C5CN(C6CCOCC6)C5)nn4)c(O)c3)ccn2n1` [Compound 192A], the fold induction at 0.1 µM in experiment [1] (setting [4]) is 51.3; in experiment [2] (setting [6]), 4.97; in experiment [3] (setting [8]), 2.18. The fold induction at 1 µM in experiment [1] (setting [5]) was determined as 70.8; in experiment [2] (setting [7]), 22.7; in experiment [3] (setting [9]), 13.4.
Consider `Cc1cn2cc(-c3ccc(-c4ccc(C5CNC5)nn4)c(O)c3F)cc(F)c2n1` [Compound 10A], for which the fold induction at 0.1 µM in experiment [1] (setting [4]) came to 65.9; in experiment [2] (setting [6]), 11.1; in experiment [3] (setting [8]) it was 10.1. In addition, the fold induction at 1 µM turned out to be 96 in experiment [1] (setting [5]), 29.2 in experiment [2] (setting [7]) and 43.6 in experiment [3] (setting [9]).
